Source: PMC8151276, “An Integrated Approach toward NanoBRET Tracers for Analysis of GPCR Ligand Engagement” (Molecules, 2021)

Assays:
ADORA3 = molecular target: T1, ADORA3 (Homo sapiens, UniProt P0DMS8); experiment: NanoBRET screen HiBiT-ADORA3 in HEK293; type: binding
T1 construct: purchased Promega (in-house HiBiT-GPCR construct library, NanoBRET)
T1 sequence (P0DMS8 1-318): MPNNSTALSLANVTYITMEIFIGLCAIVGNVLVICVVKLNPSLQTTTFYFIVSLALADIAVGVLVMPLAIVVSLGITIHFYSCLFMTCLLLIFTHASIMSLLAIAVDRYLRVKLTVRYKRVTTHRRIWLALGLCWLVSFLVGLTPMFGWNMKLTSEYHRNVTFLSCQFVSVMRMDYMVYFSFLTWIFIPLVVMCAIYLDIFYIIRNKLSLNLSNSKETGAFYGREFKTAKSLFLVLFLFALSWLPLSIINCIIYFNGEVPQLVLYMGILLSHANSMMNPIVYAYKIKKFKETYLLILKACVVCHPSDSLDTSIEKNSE
Procedure: (§1) Each tracer candidate was screened across the entire library of HiBiT-GPCR constructs using NanoBRET as the detection modality. As depicted in Figure 4A, the specificity of interactions was evaluated through decrease in BRET due to competitive displacement of a bound tracer by excess parental compound. Each tracer was analyzed for binding to each HiBiT-GPCR fusion in the absence and in the presence of competing parental compound. Briefly, HEK293 cells were transfected with HiBiT-GPCR constructs diluted into promoterless DNA to reduce expression and maximize translocation to the cell surface. Each tracer candidate was then screened at concentrations of 1 μM and 0.1 μM across cells expressing these fusions. Cells were treated for 1.5 h with tracer either alone or in the presence of 20 μM competing parental compound (i.e., control). BRET was measured upon addition of purified LgBiT and subsequent complementation with HiBiT genetically fused to a GPCR. The specificity of interactions was assessed through a decrease in BRET signal due to competitive displacement of the bound tracer. To further gauge the robustness of these interactions, the fold response over the control (i.e., BRETtracer/BRETcontrol) was calculated. We chose a 1.5-fold response, which translates to ≥7-fold signal over noise as the minimal threshold required to score an interaction as positive. […]. Below we highlight the screening results obtained for our exemplary fluorescent tracers based on Clozapine, Amitriptyline and AZD1283.
(§2) HiBiT-GPCR DNA constructs were diluted in 10 mM Tris pH 8 to a final concentration of 0.01 μg/μL, arrayed in 96-well plates and stored at −20 °C. For transfection, HEK293 cells were suspended in Opti-MEM (without phenol red) supplemented with 2% fetal bovine serum (Seradigm) and 100 units/mL penicillin–streptomycin (Gibco) at a final concentration of 220,000 cells/mL and dispensed into white 96-well plates at 90 μL/well. Subsequent transfections and screens were carried using an Agilent Bravo Automated Liquid Handling Platform. First, the 96-well HiBiT DNA arrays were diluted 25-fold in Opti-MEM (without serum or phenol red) to a final concentration of 0.0004 μg/μL and 20 μL of the diluted DNAs were transferred into new 96-well plates. Next, promoterless carrier DNA (1 μg/μL) was diluted 25-fold (0.04 μg/μL) and then dispensed into the diluted arrays at 20 μL/well. Following brief mixing, Viafect transfection reagent (Promega) diluted 16-fold into Opti-MEM was dispensed into the plates at 40 μL/well. After mixing by pipetting, plates were incubated for 10 min on the pipetting station deck. The DNA-transfection reagent complexes were then added to plates containing cells. To facilitate the screen, 10 μL of DNA-transfection reagent complexes were added in duplicates to the top 4 and bottom 4 rows, resulting in two identical 48-well arrays per plate. Plates with transfected cells were incubated for 18–20 h at 37 °C/5% CO2. A screen of each tracer across the entire library using two different concentrations requires duplicate plates of transfected cells. Depending on the number of tracers being screened, transfections can be scaled up using the same ratios. The next day, for each tracer, four 20× screening solutions in tracer dilution buffer (Promega) were prepared: two duplicates at final concentration of 20 μM and two duplicates at a final concentration of 2 μM. A competing unmodified compound was added to one of each duplicate at a final concentration of 400 μM. The four resulting solutions were diluted 4-fold in Opti-MEM without serum or phenol red to generate 5× solutions (5 µM and 0.5 µM tracer +/− 100 μM competing compound). To screen the library, a BioTek MultiFlo FX liquid dispenser was used to dispense 22.5 µL of tracer solution to the top 4 rows and 22.5 µL tracer + competing compound solution to the 4 bottom rows. Plates were briefly mixed on an orbital shaker and incubated for 1.5 h at room temperature. […]

MLNR = molecular target: T2, MLNR (Homo sapiens, UniProt O43193); experiment: NanoBRET screen HiBiT-MLNR in HEK293; type: binding
T2 construct: purchased Promega (in-house HiBiT-GPCR construct library, NanoBRET)
T2 sequence (O43193 whole entry): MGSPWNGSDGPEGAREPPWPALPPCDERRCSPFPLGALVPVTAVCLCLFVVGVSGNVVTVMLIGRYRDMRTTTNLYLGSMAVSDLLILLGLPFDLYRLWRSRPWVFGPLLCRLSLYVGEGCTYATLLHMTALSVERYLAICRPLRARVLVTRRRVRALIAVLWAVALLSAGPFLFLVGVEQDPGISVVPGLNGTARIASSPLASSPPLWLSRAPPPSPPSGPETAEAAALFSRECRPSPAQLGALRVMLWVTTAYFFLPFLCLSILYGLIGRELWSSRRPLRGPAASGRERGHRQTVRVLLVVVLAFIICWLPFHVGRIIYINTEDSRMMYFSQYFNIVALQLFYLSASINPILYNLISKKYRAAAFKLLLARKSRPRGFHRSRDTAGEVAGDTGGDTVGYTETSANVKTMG
Procedure: as §1, §2

[1] = tracer at 0.1μM, listed as amitriptyline-b-2-NB590

Row | SMILES | NanoBRET Fold Response (ADORA3; ADORA3, tracer 0.1μM) | NanoBRET Fold Response (ADORA3; ADORA3, tracer 1μM) | NanoBRET Fold Response (MLNR; MLNR, tracer 0.1μM) | NanoBRET Fold Response (MLNR; MLNR, tracer 1μM) | other results
1 | Cc1nc2n(c(=O)c1CCN1CCC(c3noc4cc(F)ccc34)CC1)CCCC2OC(=O)NCCOCCOCCOCCOCCNC(=O)CCc1ccc2n1[B-](F)(F)[N+]1=C(c3ccc[nH]3)C=CC1=C2 (stereo not drawn) [Risperidone-2-NB590] | 1.03 | 0.87 | 0.93 | 0.97 | –
2 | CCOC(=O)c1cc(C#N)c(N2CCC(C(=O)NS(=O)(=O)Cc3ccccc3/C=C/C(=O)NCCNC(=O)CCc3ccc4n3[B-](F)(F)[N+]3=C(c5ccc[nH]5)C=CC3=C4)CC2)nc1C [AZD1283-1-NB590] | – | – | – | – | NanoBRET Fold Response (ADORA3; ADORA3, 0.1μM): 1.11; NanoBRET Fold Response (ADORA3; ADORA3, 1μM): 1.09; NanoBRET Fold Response (MLNR; MLNR, 0.1μM): 1.06; NanoBRET Fold Response (MLNR; MLNR, 1μM): 1.01
3 | Cc1cc2c(s1)Nc1ccccc1N=C2N1CCN(CCCNC(=O)CCOCCOCCOCCOCCNC(=O)CCc2ccc3n2[B-](F)(F)[N+]2=C(c4ccc[nH]4)C=CC2=C3)CC1 [Olanzapine-a-2-NB590] | 0.94 | 1.13 | 1.27 | 1.15 | –
4 | COc1ccccc1N1CCN(CCCCN2C(=O)c3ccc(CNC(=O)CCOCCNC(=O)c4ccc(CNC(=O)CCc5ccc6n5[B-](F)(F)[N+]5=C(c7ccc[nH]7)C=CC5=C6)cc4)cc3C2=O)CC1 [NAN-190-3-NB590] | 0.97 | 1.19 | 1.32 | 0.66 | –
5 | CC(C)N(CC[C@H](c1ccccc1)c1cc(CCNC(=O)CCOCCOCCOCCOCCNC(=O)CCc2ccc3n2[B-](F)(F)[N+]2=C(c4ccc[nH]4)C=CC2=C3)ccc1O)C(C)C [Tolterodine-2-NB590] | 1.12 | 1.00 | 0.87 | 1.15 | –
6 | CN(C)CCC=C1c2ccccc2CCc2ccc(C(=O)NCCNC(=O)CCOCCOCCOCCOCCNC(=O)CCc3ccc4n3[B-](F)(F)[N+]3=C(c5ccc[nH]5)C=CC3=C4)cc21 [Amitriptyline-b-2-NB590] | – | – | – | – | NanoBRET Fold Response (ADORA3; [1]): 0.87; NanoBRET Fold Response (ADORA3; tracer at 1μM, listed as amitriptyline-b-2-NB590): 0.66; NanoBRET Fold Response (MLNR; [1]): 1.19
7 | O=C(CCOCCOCCOCCOCCNC(=O)CCc1ccc2n1[B-](F)(F)[N+]1=C(c3ccc[nH]3)C=CC1=C2)NCCCN1CCN(C2=Nc3ccccc3Oc3ccc(Cl)cc32)CC1 [Loxapine-a-2-NB590] | 1.04 | 0.78 | 1.20 | 1.16 | –
8 | CN(C)CCC=C1c2ccccc2CCc2ccc(C(=O)NCCNC(=O)CCOCCOCCOCCOCCNC(=O)CCc3ccc4n3[B-](F)(F)[N+]3=C(c5ccc[nH]5)C=CC3=C4)cc21 [Amitriptyline-a-2-NB590] | – | – | – | – | NanoBRET Fold Response (ADORA3; tracer at 0.1μM): 1.00; NanoBRET Fold Response (ADORA3; tracer at 1μM): 1.07; NanoBRET Fold Response (MLNR; tracer at 0.1μM): 1.05; NanoBRET Fold Response (MLNR; tracer at 1μM): 1.05
9 | O=C(CCc1ccc2n1[B-](F)(F)[N+]1=C(c3ccc[nH]3)C=CC1=C2)NCCOCCOCCNC(=O)OCCOCCN1CCN(C2=Nc3ccccc3Sc3ccccc32)CC1 [Quetiapine-a-2-NB590] | 0.98 | 0.82 | 1.02 | 0.86 | –
10 | COc1ccccc1N1CCN(CCCCN2C(=O)c3ccc(CNC(=O)CCOCCOCCOCCOCCNC(=O)CCc4ccc5n4[B-](F)(F)[N+]4=C(c6ccc[nH]6)C=CC4=C5)cc3C2=O)CC1 [NAN-190-2-NB590] | 0.96 | 0.89 | 0.67 | – | –
11 | CN1CCN(C2=Nc3cc(Cl)ccc3N(CC(=O)NCCOCCOCCOCCOCCNC(=O)CCc3ccc4n3[B-](F)(F)[N+]3=C(c5ccc[nH]5)C=CC3=C4)c3ccccc32)CC1 [Clozapine-c-2-NB590] | – | – | – | – | NanoBRET Fold Response (ADORA3; ADORA3, 0.1μM tracer): 1.05; NanoBRET Fold Response (ADORA3; ADORA3, 1μM tracer): 0.81; NanoBRET Fold Response (MLNR; MLNR, 0.1μM tracer): 0.66; NanoBRET Fold Response (MLNR; MLNR, 1μM tracer): 1.14
12 | COc1ccc2[nH]c(-c3ccc(CNC(=O)CCOCCOCCOCCOCCNC(=O)CCc4ccc5n4[B-](F)(F)[N+]4=C(c6ccc[nH]6)C=CC4=C5)cc3)c(CCNC(C)=O)c2n1 [AzomelatoninICO9-2-NB590] | – | – | – | – | NanoBRET Fold Response (ADORA3; 0.1μM tracer): 0.91; NanoBRET Fold Response (ADORA3; 1μM tracer): 0.97; NanoBRET Fold Response (MLNR; 0.1μM tracer): 0.60; NanoBRET Fold Response (MLNR; 1μM tracer): 0.87
13 | O=C(CCOCCOCCOCCOCCNC(=O)CCc1ccc2n1[B-](F)(F)[N+]1=C(c3ccc[nH]3)C=CC1=C2)NCCCN1CCN(C2=Nc3cc(Cl)ccc3Nc3ccccc32)CC1 [Clozapine-a-2-NB590] | – | – | – | – | NanoBRET Fold Response (ADORA3; ADORA3, 0.1μM tracer): 1.04; NanoBRET Fold Response (ADORA3; ADORA3, 1μM tracer): 0.83; NanoBRET Fold Response (MLNR; MLNR, 0.1μM tracer): 0.94; NanoBRET Fold Response (MLNR; MLNR, 1μM tracer): 1.08
14 | CCCn1c(=O)c2[nH]c(-c3ccc(OCC(=O)NCCNC(=O)CCOCCNC(=O)c4ccc(CNC(=O)CCc5ccc6n5[B-](F)(F)[N+]5=C(c7ccc[nH]7)C=CC5=C6)cc4)cc3)nc2n(CCC)c1=O [XAC-3-NB590] | 12.13 | 6.72 | 0.99 | 0.91 | –
15 | O=C(CCc1ccc2n1[B-](F)(F)[N+]1=C(c3ccc[nH]3)C=CC1=C2)NCc1ccc(C(=O)NCCOCCOCCNCC(O)COc2cccc3ccccc23)cc1 (stereo not drawn) [Propranolol-3-NB590] | – | – | – | – | NanoBRET Fold Response (ADORA3; ADORA3, 0.1μM): 1.04; NanoBRET Fold Response (ADORA3; ADORA3, 1μM): 0.98; NanoBRET Fold Response (MLNR; MLNR, 0.1μM): 1.01; NanoBRET Fold Response (MLNR; MLNR, 1μM): 1.02
16 | O=C(CCc1ccc2n1[B-](F)(F)[N+]1=C(c3ccc[nH]3)C=CC1=C2)NCc1ccc(C(=O)NCCOCCC(=O)N[C@@H]2CC[C@@]3(O)[C@H]4Cc5ccc(O)c6c5[C@@]3(CCN4CC3CC3)[C@H]2O6)cc1 [Naltrexone-3-NB590] | 0.77 | 0.84 | 1.44 | 0.69 | –
17 | CN(CCC=C1c2ccccc2CCc2ccccc21)C(=O)CCOCCOCCOCCOCCNC(=O)CCc1ccc2n1[B-](F)(F)[N+]1=C(c3ccc[nH]3)C=CC1=C2 [Amitriptyline-e-2-NB590] | – | – | – | – | NanoBRET Fold Response (ADORA3; tracer at 1μM): 0.99
18 | N#CN=C(NCCCOc1cccc(CN2CCCCC2)c1)NCCNC(=O)CCOCCOCCOCCOCCNC(=O)CCc1ccc2n1[B-](F)(F)[N+]1=C(c3ccc[nH]3)C=CC1=C2 [Aminopotentidine-2-NB590] | 1.16 | 1.03 | 0.97 | 1.00 | –
19 | COc1ccc2c(n1)c(CCNC(C)=O)cn2CCNC(=O)CCc1ccc2n1[B-](F)(F)[N+]1=C(c3ccc[nH]3)C=CC1=C2 [Azamelatonin-1-NB590] | – | – | – | – | NanoBRET Fold Response (ADORA3; 0.1μM tracer): 1.01; NanoBRET Fold Response (ADORA3; 1μM tracer): 1.02; NanoBRET Fold Response (MLNR; 0.1μM tracer): 1.00; NanoBRET Fold Response (MLNR; 1μM tracer): 0.92
20 | CC(C)N(CC[C@H](c1ccccc1)c1cc(CCNC(=O)c2ccc(CNC(=O)CCc3ccc4n3[B-](F)(F)[N+]3=C(c5ccc[nH]5)C=CC3=C4)cc2)ccc1O)C(C)C [Tolterodine-BZ-NB590] | 0.58 | 0.71 | 1.06 | 1.05 | –
